Experiments:
[1] = target: all other receptors examined; assay: Radioligand filtration binding (Example 19)
Procedure: (§1) The affinity of nepicastat was determined in the bindings assays outlined using standard radioligand filtration binding methods were used. Competition binding data were analyzed by iterative curve fitting to a four parameter logistic equation. Hill coefficients and IC50 were obtained directly. pKi (−log of Ki) of competing ligands were calculated from IC50 values using the Cheng-Prusoff equation.

alpha1 receptors = assay: Radioligand filtration binding (Example 19)
Procedure: as §1

[2] = system: tissue noradrenaline and dopamine content; assay: Tissue catecholamines in beagle dogs dosed b.i.d. for 5 days; assay type: in vivo; conditions: for maximal increase in DA/NE ratio: 5 mg/kg b.i.d.; for decrease in noradrenaline / increase in dopamine: 5 mg/kg b.i.d. po
Procedure: Male beagle dogs (10-16 kg, Marshall Farms USA Inc, North Rose, N.Y., USA) were also used in in vivo studies. On the day of the study, dogs were weighed and randomly assigned to be orally dosed with either empty capsules (control) or the appropriate dose of nepicastat (0.05, 0.5, 1.5 or 5 mg·kg^−1; po, b.i.d.) for 5 days. At six hours following the first dose on day-5, the dogs were euthanized with pentobarbital and the tissues (cerebral cortex, renal artery, left ventricle) were rapidly harvested. The tissues were subsequently processed and analyzed for noradrenaline and dopamine.
Nepicastat was used in in vivo biochemical studies to study the effects in spontaneously hypertensive rats (SHRs) and normal beagle dogs. On the day of the study, the animals were weighed and randomly assigned to receive either placebo (vehicle) or the appropriate dose of nepicastat. Each rat was dosed orally three times, 12 h apart, beginning in the morning. At 6 h after the third dose, the rats were anesthetized with halothane, decapitated, and the tissues (cerebral cortex, mesenteric artery and left ventricle) were rapidly harvested, weighed, placed in iced 0.4 M perchloric acid, frozen in liquid nitrogen and stored at −70° C. until analysis. Tissue NE and DA concentrations were assayed by HPLC using electrochemical detection. Male beagle dogs (10-16 kg, Marshall Farms USA Inc, North Rose, N.Y.) were used in the study. On the day of the study, dogs were randomly assigned to receive either placebo (empty capsule) or the appropriate dose of nepicastat. Each dog was dosed twice a day for 4.5 days. 6 h after the first dose on day 5, the dogs were euthanized with pentobarbital and the tissues (cerebral cortex. renal artery, left ventricle) harvested, weighed, placed in iced 0.4 M perchloric acid, frozen in liquid nitrogen and stored at −70° C. until analysis. Tissue NE and DA concentrations were assayed by HPLC using electrochemical detection.

[3] = system: aortic contractile response to phenylephrine; assay: Aortic contractile response in vitro to phenylephrine after 21 days treatment; assay type: in vivo, spontaneously hypertensive rats; conditions: 10 mg/kg p.o. daily for 21 days
Source text: The aortic contractile response in vitro to phenylephrine is impaired in spontaneously hypertensive rats (SHRs) relative to normotensive Wistar-Kyoto rats.

[4] = Toxicity studies in dogs (acute, 1-month); assay type: in vivo
Procedure: Dose selection was based on data from two studies with nepicastat. […] In a 1-month study, doses of 5, 20, or 80 mg/kg were administered to dogs orally once daily.

Cl.NCc1c[nH]c(=S)n1[C@H]1CCc2c(F)cc(F)cc2C1 [nepicastat, (S)-5-Aminomethyl-1-(5,7-difluoro-1,2,3,4-tetrahydronaphth-2-yl)-2,3-dihydro-2-thioxo-1H-imidazole hydrochloride]
pKi [1]: < 6.2 | pKi (alpha1 receptors): 6.9-6.7 | maximal increase in DA/NE ratio ([2]; cerebral cortex): 80 fold | decrease in noradrenaline ([2]; cerebral cortex): 96% | increase in dopamine ([2]; cerebral cortex): 166% | maximal increase in DA/NE ratio ([2]; left ventricle): 151 fold | decrease in noradrenaline ([2]; left ventricle): 91% | increase in dopamine ([2]; left ventricle): 700% | maximal increase in DA/NE ratio ([2]; renal artery): 95 fold | decrease in noradrenaline ([2]; renal artery): 88% | increase in dopamine ([2]; renal artery): 627% | doses at which catecholamine changes attained significance (p<0.05) ([2]; renal artery, left ventricle, cerebral cortex): ≥ 0.1 mg/kg/day | phenylephrine responsiveness of aorta [3]: restored phenylephrine responsiveness | 1-month toxicity ([4]; 80 mg/kg/day orally once daily): Clinical signs of toxicity were present | acute toxicity ([4]; single oral dose of 400 mg/kg): transient clinical signs of toxicity
